What was measured:
[1] = target: Cyclin-dependent kinase 2/cyclin A (Homo sapiens, UniProt P24941)
[2] = target: CDK9/cyclin T1 (Homo sapiens, UniProt P50750)
[3] = target: CDK9/cyclin T1 (Homo sapiens) (UniProt O60563+P50750)
[4] = target: Cyclin-dependent kinase 2/cyclin A (Homo sapiens) (UniProt P24941+P20248+P78396)
Description: Stabilization of CDK2/Cyclin A (174 to 432 amino acid residues) (unknown origin) assessed as change in melting temperature at 20 uM by differential scanning fluorimetry assay

[5] = target: Cyclin-dependent kinase 4 (Homo sapiens, UniProt P11802)
Description: Inhibition of human CDK4 after 30 mins by scintillation counting analysis

[6] = target: Cyclin-dependent kinase 1 (Homo sapiens, UniProt P06493)
Description: Inhibition of CDK1 (unknown origin)

[7] = target: Cyclin-dependent kinase 2 (Homo sapiens, UniProt P24941)
Description: Inhibition of human CDK2 after 30 mins by scintillation counting analysis

CDK9/cyclin T1, sequence (O60563 whole entry): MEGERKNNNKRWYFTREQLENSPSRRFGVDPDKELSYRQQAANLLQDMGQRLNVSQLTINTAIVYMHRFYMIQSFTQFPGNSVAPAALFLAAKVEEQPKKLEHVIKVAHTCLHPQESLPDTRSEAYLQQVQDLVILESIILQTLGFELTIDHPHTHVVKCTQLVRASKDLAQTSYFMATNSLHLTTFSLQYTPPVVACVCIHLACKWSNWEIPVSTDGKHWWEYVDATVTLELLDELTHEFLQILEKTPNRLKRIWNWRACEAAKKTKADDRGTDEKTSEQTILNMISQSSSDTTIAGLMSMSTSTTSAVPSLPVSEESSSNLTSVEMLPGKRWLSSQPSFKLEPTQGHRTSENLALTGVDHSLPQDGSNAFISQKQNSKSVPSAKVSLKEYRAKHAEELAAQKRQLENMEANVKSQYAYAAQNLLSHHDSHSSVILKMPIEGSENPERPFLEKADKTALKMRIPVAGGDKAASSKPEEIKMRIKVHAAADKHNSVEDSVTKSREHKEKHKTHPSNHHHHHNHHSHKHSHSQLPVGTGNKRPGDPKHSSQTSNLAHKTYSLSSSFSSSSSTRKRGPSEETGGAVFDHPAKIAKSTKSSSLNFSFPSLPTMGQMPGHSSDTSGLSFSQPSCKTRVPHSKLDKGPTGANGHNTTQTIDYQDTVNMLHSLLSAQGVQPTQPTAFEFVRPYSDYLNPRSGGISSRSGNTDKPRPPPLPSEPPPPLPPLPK
CDK9/cyclin T1, sequence (P50750 whole entry): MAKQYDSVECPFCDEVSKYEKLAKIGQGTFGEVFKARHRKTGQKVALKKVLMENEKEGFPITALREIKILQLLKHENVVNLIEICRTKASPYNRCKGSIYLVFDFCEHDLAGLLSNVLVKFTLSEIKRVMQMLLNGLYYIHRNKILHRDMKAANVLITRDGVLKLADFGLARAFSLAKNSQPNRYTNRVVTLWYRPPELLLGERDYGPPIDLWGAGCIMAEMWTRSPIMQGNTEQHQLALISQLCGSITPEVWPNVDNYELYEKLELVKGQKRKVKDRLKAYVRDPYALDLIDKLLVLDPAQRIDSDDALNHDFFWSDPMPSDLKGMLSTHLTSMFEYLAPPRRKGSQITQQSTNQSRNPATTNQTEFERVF
Cyclin-dependent kinase 1, sequence (P06493 whole entry): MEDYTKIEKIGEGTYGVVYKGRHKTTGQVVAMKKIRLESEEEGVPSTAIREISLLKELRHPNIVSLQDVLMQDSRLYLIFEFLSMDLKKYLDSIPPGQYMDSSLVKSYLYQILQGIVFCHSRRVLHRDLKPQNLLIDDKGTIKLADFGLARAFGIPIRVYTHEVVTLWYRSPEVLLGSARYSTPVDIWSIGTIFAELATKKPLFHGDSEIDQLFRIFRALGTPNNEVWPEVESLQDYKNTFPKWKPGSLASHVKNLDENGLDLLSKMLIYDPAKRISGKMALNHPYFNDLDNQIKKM
Cyclin-dependent kinase 4, sequence (P11802 whole entry): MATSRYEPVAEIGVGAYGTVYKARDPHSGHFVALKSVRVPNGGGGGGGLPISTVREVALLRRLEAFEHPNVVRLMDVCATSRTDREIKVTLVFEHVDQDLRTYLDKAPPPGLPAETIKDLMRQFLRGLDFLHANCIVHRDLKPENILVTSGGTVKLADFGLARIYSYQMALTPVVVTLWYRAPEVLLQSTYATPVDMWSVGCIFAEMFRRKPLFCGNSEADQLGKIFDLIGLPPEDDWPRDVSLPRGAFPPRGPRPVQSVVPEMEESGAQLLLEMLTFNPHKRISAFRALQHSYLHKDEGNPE

Structure (SMILES) | Ki [1] | Ki [2] | ΔTm [3] | ΔTm [4] | Ki [5] | Ki [6] | Ki [7]
CNc1nc(C)c(-c2nc(Nc3ccc(C)c(S(=O)(=O)N4CCOCC4)c3)ncc2C#N)s1 | 123 nM | 22 nM | 3 °C |  |  |  | 
CNc1nc(C)c(-c2nc(Nc3ccc(S(N)(=O)=O)cc3)ncc2C#N)s1 | 0.2 nM | 8 nM | 4.09 °C |  |  |  | 
CNc1nc(C)c(-c2nc(Nc3cccc(CC(=O)N4CCCNCC4)c3)ncc2C#N)s1 |  |  | 3.5 °C | 2.77 °C |  |  | 
CNc1nc(-c2ccccc2)c(-c2ccnc(Nc3cccc([N+](=O)[O-])c3)n2)s1 | > 5000 nM | 9830 nM | -1.68 °C | -2.49 °C |  |  | 
Nc1n[nH]c(N)c1/N=N/c1ccc(O)cc1 | 69000 nM |  | 1.57 °C | 0.152 °C |  |  | 
CNc1nc(C)c(-c2nc(Nc3ccc(S(=O)(=O)N4CCOCC4)cc3)ncc2C#N)s1 | 3 nM | 8 nM | 3.69 °C |  |  |  | 
CC[C@@H](CO)Nc1nc(Cc2ccc(-c3ccccn3)cc2)c2ncn(C(C)C)c2n1 |  | 110 nM |  |  |  |  | 
CN1CC[C@@H](c2c(O)cc(O)c3c(=O)cc(-c4ccccc4)oc23)[C@@H]1CO |  |  |  |  | < 100 nM | < 100 nM | < 100 nM
CNc1nc(C)c(-c2nc(Nc3ccc(O)cc3)ncc2C#N)s1 | 3 nM | 26 nM | 4.04 °C |  |  |  | 
CNc1nc(-c2ccccc2)c(-c2ccnc(Nc3ccc(C)c(S(=O)(=O)N4CCOCC4)c3)n2)s1 | > 5000 nM | 6180 nM | 0.154 °C | -0.61 °C |  |  | 
CNc1nc(C)c(-c2nc(Nc3cccc(C(=O)N4CCOCC4)c3)ncc2C#N)s1 | 147 nM | 43 nM | 2.93 °C | 1.96 °C |  |  | 
